The source of these data is PMC10883907, “Phage-display reveals interaction of lipocalin allergen Can f 1 with a peptide resembling the antigen binding region of a human γδT-cell receptor” (Biological Chemistry, 2020).

The target of this experiment is Can f 1 (Canis lupus, UniProt O18873). Briefly: fluorescence titration (excitation […] nm, emission […] nm). The experiment is classed as binding.
Sequence of Can f 1 (O18873 19-174): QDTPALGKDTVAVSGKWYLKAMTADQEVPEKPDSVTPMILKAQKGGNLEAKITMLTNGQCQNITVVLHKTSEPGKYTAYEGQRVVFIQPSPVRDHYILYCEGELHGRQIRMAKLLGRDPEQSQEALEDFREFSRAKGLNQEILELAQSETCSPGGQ

`O=S(=O)(O)c1cccc2cccc(Nc3ccccc3)c12` [ANS, 8-anilinonaphthalene-1-sulfonic acid] came in with a Kd of 2100 nM.
